# Laboratory results published in article PMC12169615, “Fluorescent 4‑Nitrobenzo-2-oxa-1,3-diazole-Coupled Bile Acids as Probe Substrates of Hepatic and Intestinal Bile Acid Transporters of the Solute Carrier Families SLC10 and SLCO” (Journal of Medicinal Chemistry, 2025).
# Where “and” joins values, the source holds several entries; their conditions need not be identical. Equal values may be shown once.
# Experiments:
# Test in all cases: Quantitative uptake of 3-NBD-BA in carrier-expressing HEK293 cells (fluorescence reader)
# Assay type in all cases: cell-based
# [1] = target: T1, mouse mNtcp (Mus musculus, UniProt O08705); conditions: mNtcp-HEK293, 25 μM, 37 °C, +Na+ vs -Na+
# T1 construct: stably transfected with the full open reading frames of human NTCP, ASBT, SOAT, OATP1B1, and OATP1B3 as well as mouse mNtcp and mAsbt; expressed in transfected cells
# T1 sequence (O08705 1-362): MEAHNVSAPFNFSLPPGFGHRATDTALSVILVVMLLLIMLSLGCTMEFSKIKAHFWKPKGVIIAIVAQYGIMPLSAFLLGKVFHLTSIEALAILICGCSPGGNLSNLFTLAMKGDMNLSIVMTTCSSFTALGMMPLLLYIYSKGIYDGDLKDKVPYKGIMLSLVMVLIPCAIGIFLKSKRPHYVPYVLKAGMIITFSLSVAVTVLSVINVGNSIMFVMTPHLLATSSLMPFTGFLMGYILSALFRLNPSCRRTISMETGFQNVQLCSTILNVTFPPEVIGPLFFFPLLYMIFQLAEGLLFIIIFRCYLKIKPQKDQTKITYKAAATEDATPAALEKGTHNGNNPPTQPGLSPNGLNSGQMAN
# Protocol: (§1) For quantification of the transport activity of the synthesized NBD-BA, all cell lines were seeded on 96 well plates and transport experiments were performed under the same control conditions (-Na^+ control for the SLC10 carriers and nontransfected HEK293 cells for the OATP carriers) as before (Figure ). For each NBD-BA, a substrate concentration of 25 μM was used, and the uptake phase was terminated after 10 min of incubation at 37 °C. […] The transport ratios ranged from 3-fold to 39-fold. In direct comparison, 3α-NBD-TCA (14d) and 3α-NBD-GCA (16d) were transported better than their 3β-analogs 3β-NBD-TCA (14a) and 3β-NBD-GCA (16a), respectively, clearly pointing to a preference for the α-position over the β-position of the 3-NBD-label. In direct comparison between the taurine- or glycine-conjugation of the respective NBD-BA, there was a clear preference for 3α-NBD-GCA (16d) over 3α-NBD-TCA (14d), at least for NTCP and mAsbt, pointing to a favorable substrate recognition for glycine-conjugated NBD-BA.
# (§2) 5 Quantitative uptake experiments with the 3-NBD-BA in HEK293 cells stably expressing the human carriers NTCP, ASBT, SOAT, OATP1B1, and OATP1B3, or the mouse carriers mNtcp and mAsbt. For the SLC10 carriers, all transport experiments were performed in the presence (filled bars) and the absence (hatched bars) of sodium. For the OATP carriers, uptake into carrier-expressing cells (filled bars) was compared to uptake into non-carrier-expressing HEK293 cells (hatched bars). All cell lines were incubated at 37 °C for 10 min with the indicated 3-NBD-BA at 25 μM. Then, cells were washed with PBS and subjected to fluorescence detection. The following fluorescent BA were analyzed: 3α-NBD-TCA (14d), 3β-NBD-TCA (14a), 3α-NBD-GCA (16d), 3β-NBD-GCA (16a), 3β-NBD-TCDCA (14b), 3β-NBD-CDCA (6b), 3β-NBD-DCA (6c), 3α-NBD-CA (6d), and 3β-NBD-CA (6a). Data represent means ± SD of triplicate determinations of representative experiments. […] RFU, relative fluorescence units. TEXT PRINTED IN THE PICTURE: 3α-NBD-TCA (14d): NTCP: 9 X; mNtcp: 30 X; ASBT: 2 X; mAsbt: 14 X | 3ß-NBD-TCA (14a): NTCP: 12 X; mNtcp: 20 X; mAsbt: 18 X | 3α-NBD-GCA (16d): NTCP: 27 X; mNtcp: 26 X; ASBT: 3 X; mAsbt: 39 X | 3ß-NBD-GCA (16a): NTCP: 15 X; mNtcp: 14 X; mAsbt: 5 X | 3ß-NBD-TCDCA (14b): NTCP: 5 X; mNtcp: 3 X; mAsbt: 4 X | 3ß-NBD-CDCA (6b): mNtcp: < 2 X; ASBT: < 2 X; mAsbt: < 2 X; OATP1B1: < 2 X; OATP1B3: < 2 X | 3ß-NBD-DCA (6c): mNtcp: < 2 X; ASBT: < 2 X; mAsbt: < 2 X | 3α-NBD-CA (6d): mNtcp: 2 X; mAsbt: 4 X | 3ß-NBD-CA (6a): NTCP: 2 X; mNtcp: 2 X; mAsbt: 2 X DOUBTS OF THE COPYIST ABOUT THIS PICTURE: The picture prints no panel letters, so the chart titles (NTCP, mNtcp, ASBT, mAsbt, OATP1B1, OATP1B3) are written in front of the values as the target. / Substance labels: the sign after '3' is printed like 'ß' and may be meant as 'β'. / The 'ns' marks and significance asterisks were left out as statistics. The SOAT chart prints only 'ns'.
# [2] = target: T2, human NTCP (Homo sapiens, UniProt Q14973); conditions: NTCP-HEK293, 25 μM, 37 °C, +Na+ vs -Na+
# T2 construct: HEK293 cell lines stably transfected with the full open reading frames of human NTCP; expressed in transfected cells
# T2 sequence (Q14973 1-349): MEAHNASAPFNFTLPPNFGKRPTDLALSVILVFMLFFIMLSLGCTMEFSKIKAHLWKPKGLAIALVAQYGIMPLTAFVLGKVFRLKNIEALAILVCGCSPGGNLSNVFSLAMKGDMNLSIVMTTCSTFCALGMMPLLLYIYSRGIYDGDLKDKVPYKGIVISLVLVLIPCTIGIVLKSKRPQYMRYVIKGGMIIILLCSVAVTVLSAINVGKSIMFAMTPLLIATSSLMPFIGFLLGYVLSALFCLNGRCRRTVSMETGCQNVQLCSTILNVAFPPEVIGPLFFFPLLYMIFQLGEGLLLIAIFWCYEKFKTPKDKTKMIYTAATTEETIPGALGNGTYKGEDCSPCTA
# Protocol: as §1, §2
# [3] = target: T3, human ASBT (Homo sapiens, UniProt Q12908); parameters: stably transfected with the full open reading frames of human NTCP, ASBT, SOAT, OATP1B1, and OATP1B3; expressed in transfected cells; conditions: ASBT-HEK293, 25 μM, 37 °C, +Na+ vs -Na+
# T3 sequence (Q12908 1-348): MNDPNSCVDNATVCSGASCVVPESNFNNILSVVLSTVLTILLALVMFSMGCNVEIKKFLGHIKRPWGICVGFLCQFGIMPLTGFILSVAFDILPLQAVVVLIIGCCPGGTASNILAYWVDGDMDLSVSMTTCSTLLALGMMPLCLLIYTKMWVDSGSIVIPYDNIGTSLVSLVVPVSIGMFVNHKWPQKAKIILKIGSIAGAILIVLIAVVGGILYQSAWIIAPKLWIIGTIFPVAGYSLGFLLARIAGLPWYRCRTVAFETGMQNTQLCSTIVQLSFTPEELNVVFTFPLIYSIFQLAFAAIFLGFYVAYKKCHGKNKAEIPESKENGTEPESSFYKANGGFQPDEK
# Protocol: as §1, §2
molecule,measurement,setting,value
"7α-Hydroxy-3β-[(7-nitro-2,1,3-benzoxadiazol-4-yl)amino]-5β-cholan-24-oate [6b]",Specific transport ratio mNtcp (25µM/10 min uptake),[1],<2x x-fold
same,Specific transport ratio NTCP (25µM/10 min uptake),[2],ns
same,Specific transport ratio ASBT (25µM/10 min uptake),[3],<2x x-fold
"12α-Hydroxy-3β-[(7-nitro-2,1,3-benzoxadiazol-4-yl)amino]-5β-cholan-24-oate [6c]",Specific transport ratio mNtcp (25µM/10 min uptake),[1],<2x x-fold
same,Specific transport ratio NTCP (25µM/10 min uptake),[2],ns
same,Specific transport ratio ASBT (25µM/10 min uptake),[3],<2x x-fold
"C[C@H](CCC(=O)O)[C@H]1CC[C@H]2[C@@H]3[C@H](O)C[C@@H]4C[C@@H](Nc5ccc([N+](=O)[O-])c6nonc56)CC[C@]4(C)[C@H]3C[C@H](O)[C@]12C [6a, 7α,12α-Dihydroxy-3β-[(7-nitro-2,1,3-benzoxadiazol-4-yl)amino]-5β-cholan-24-oate]",Specific transport ratio mNtcp (25µM/10 min uptake),[1],2 x-fold and 2x x-fold
same,Specific transport ratio NTCP (25µM/10 min uptake),[2],2 x-fold and 2x x-fold
same,Specific transport ratio ASBT (25µM/10 min uptake),[3],ns
"C[C@H](CCC(=O)O)[C@H]1CC[C@H]2[C@@H]3[C@H](O)C[C@@H]4C[C@H](Nc5ccc([N+](=O)[O-])c6nonc56)CC[C@]4(C)[C@H]3C[C@H](O)[C@]12C [6d, 7α,12α-Dihydroxy-3α-[(7-nitro-2,1,3-benzoxadiazol-4-yl)amino]-5β-cholan-24-oate]",Specific transport ratio mNtcp (25µM/10 min uptake),[1],2 x-fold and 2x x-fold
same,Specific transport ratio NTCP (25µM/10 min uptake),[2],ns
same,Specific transport ratio ASBT (25µM/10 min uptake),[3],ns
C[C@H](CCC(=O)NCCS(=O)(=O)[O-])[C@H]1CC[C@H]2[C@@H]3[C@H](O)C[C@@H]4C[C@@H](Nc5ccc([N+](=O)[O-])c6nonc56)CC[C@]4(C)[C@H]3C[C@H](O)[C@]12C.[Na+] [14a],Specific transport ratio mNtcp (25µM/10 min uptake),[1],20x x-fold
same,Specific transport ratio NTCP (25µM/10 min uptake),[2],12x x-fold
same,Specific transport ratio ASBT (25µM/10 min uptake),[3],not transported and ns
C[C@H](CCC(=O)NCCS(=O)(=O)[O-])[C@H]1CC[C@H]2[C@@H]3[C@H](O)C[C@@H]4C[C@H](Nc5ccc([N+](=O)[O-])c6nonc56)CC[C@]4(C)[C@H]3C[C@H](O)[C@]12C.[Na+] [14d],Specific transport ratio mNtcp (25µM/10 min uptake),[1],30x x-fold
same,Specific transport ratio NTCP (25µM/10 min uptake),[2],9x x-fold
C[C@H](CCC(=O)NCC(=O)O)[C@H]1CC[C@H]2[C@@H]3[C@H](O)C[C@@H]4C[C@@H](Nc5ccc([N+](=O)[O-])c6nonc56)CC[C@]4(C)[C@H]3C[C@H](O)[C@]12C [16a],Specific transport ratio mNtcp (25µM/10 min uptake),[1],14x x-fold
same,Specific transport ratio NTCP (25µM/10 min uptake),[2],15x x-fold
same,Specific transport ratio ASBT (25µM/10 min uptake),[3],not transported and ns
C[C@H](CCC(=O)NCC(=O)O)[C@H]1CC[C@H]2[C@@H]3[C@H](O)C[C@@H]4C[C@H](Nc5ccc([N+](=O)[O-])c6nonc56)CC[C@]4(C)[C@H]3C[C@H](O)[C@]12C [16d],Specific transport ratio mNtcp (25µM/10 min uptake),[1],26x x-fold
same,Specific transport ratio NTCP (25µM/10 min uptake),[2],27x x-fold
